“Also recorded” adds a separate entry of the source. Where two headings read alike, the source gives them in different places.
Experiments:
[1] = system: AMPA/Quisqualate Excitatory Amino Acid Receptor; experiment: [3H]AMPA radioligand receptor binding assay; details: for activity at the AMPA/quisqualate receptor: [3H]AMPA binding; for % Inhibition of [3H]AMPA binding: compound concentration of 10^-5 M
From the text: The assay that was used was a radioligand receptor binding assay using [^3 H]α-amino-3-hydroxy-5-methylisoxazole-4-propionic acid ([^3 H]AMPA) as the radioligand [Murphy et al., Neurochemical Research, 12, 775 (1987)].
^a Percent inhibition of [^3 H]AMPA binding at a compound
concentration of 10^-5 M.

[2] = system: CA1 neurons (rat hippocampal slices); experiment: Inhibition of evoked synaptic field potential of CA1 neurons in hippocampal slices, before and after L-quisqualic acid exposure; format: cell-based, rat (male Sprague-Dawley); details: for sensitization: fractional increase in potency after L-quisqualic acid (IC50 before vs after); for change in IC50 / sensitization after L-quisqualic acid: hippocampal slices after exposure to L-quisqualic acid; for stimulatory activity prior to treatment with L-quisqualic acid: prior to treatment of hippocampal slices with L-quisqualic acid; for decrease of IC50 values after exposure of the tissue to L-quisqualic acid: IC50 before vs after L-quisqualic acid
Description: The IC50 values for inhibition of the evoked synaptic field potential of CA1 neurons of analogs 2-5 were determined both before and after slices were exposed to L-quisqualic acid. Varying degrees of sensitization were observed as shown by the data on Table 2.
Potencies were determined before and after a 4minute exposure of slices t
16 μM Lquisqualic acid. Sensitization refers to the fractional increas
(§1) Transverse hippocampal slices were obtained from 30-100 day-old male Sprague-Dawley rats. Rats were anesthetized with urethane (1.5 g/kg ip) and then decapitated. The brain was removed and placed in ice-cold preparatory medium comprised of 124 mM NaCl, 3.3 mM KCl, 10 mM MgSO4, 0.5 mM CaCl2, 1.2 mM KH2 PO4, 10 mM glucose, and 26 mM NaHCO3 equilibrated with 95% O2 /5% CO2 (pH 7.4). The hippocampus was then isolated and sliced into 500-μm slices using a Campden Instruments VibroSlice microtome. Slices were submerged in preparatory medium at 28° C. which was aerated with 95% O2 /5% CO2 and incubated for 45 min. Slices were then transferred to recording medium comprised of 124 mM NaCl, 3.3 mM KCl, 2.4 mM MgSO4, 2.5 mM CaCl2, 1.2 mM KH2 PO4, 10 mM glucose, and 26 mM NaHCO3 aerated with 95% O2 /5% CO2 (pH 7.4) and incubated at 28° C. for at least 30 min. prior to use.
(§2) Slices were transferred to a small recording chamber containing the recording medium at 34° C. Initially, the upper surface of the slice was exposed to a humid atmosphere containing 95% O2 /5% CO2. Bipolar stimulation (0.1 ms, 10-40 V, 0.1 Hz) was delivered to the Schaffer collateral axons via a pair of Teflon-coated stainless steel wires (0.003 in.). […] The evoked extracellular synaptic field potentials were observed using a storage oscilloscope, and the peak amplitudes were sampled and recorded with a chart recorder. When a suitable field potential was obtained, the slice was submerged in oxygenated medium (34° C.) and the response allowed to stabilize. Test compounds were dissolved in oxygenated medium and were added and removed using a push/pull device allowing a complete change of medium within 30 sec.
Slices were exposed to L-AP4, L-quisqualic acid and the test compound in the following sequence, which is a modification of the previous method: (1) 200 μM L-AP4, (2) test compound, (3) 200 μM L-AP4, (4) 16 μM L-quisqualic acid, (5) 200 μM L-AP4, (6) test compound, (7) 200 μM L-AP4. Slices were washed between each addition of new drug until the peak amplitude of the field potential returned to its pretest level. Full concentration-response curves were determined for the test compound both before and after treatment of slices with L-quisqualic acid. In addition to determining the potency of compounds before and after addition of L-quisqualic acid, this protocol was designed to test for the ability of test compounds to induce the QUIS effect (and thus mimic the effects of L-quisqualic acid) and to test for the "preblocking" and "reversal" effects which have been previously observed only for L-homocysteine sulfinic acid, L-serine O-sulfate, and L-α-aminoadipic acid.
Concentration-response data were obtained by exposing the slice to a concentration of drug which was subthreshold for inhibition of the field potential. Drug concentration was doubled every 4 min until the response had either declined more than 70% or the bath concentration of the drug exceeded 10 mM. […] IC50 values were obtained. by plotting the fractional response remaining at the end of 4 min versus the log of the bath concentration of the drug. The concentration which produced a 50% inhibition of the peak amplitude (IC50) was interpolated from the graph. All reported IC50 values are the mean values for four or more experiments. The results are summarized on Table 2, above.

[3] = system: QUIS effect in CA1 neurons; details: cited from earlier work; for reversal of the QUIS effect after it has been induced: CA1 neurons; for blocking (preblocking) of the QUIS effect: brief exposure of CA1 neurons, removed prior to L-quisqualic acid
[4] = system: QUIS effect in hippocampal slices (CA1 region); experiment: Capability to induce, preblock and reverse the QUIS effect in hippocampal slices; format: cell-based, rat (male Sprague-Dawley); details: sensitization of slices to depolarization by AP4
Description: L-Quisqualic acid analogs 2-5 were tested for their capability to induce, preblock and reverse the QUIS effect by the procedures disclosed in the examples hereinbelow. […] Thus, L-quisqualic acid remains the only compound known to induce the QUIS effect. In addition, none of the analogs were capable of preblocking or reversing the sensitization induced by L-quisqualic acid. […] While the precise details are unknown, an induction mechanism shown in FIG. 2, involving multiple sites of interaction such as this, would explain the apparent strict structural requirements for induction, reversal and preblocking of the QUIS effect.
as §1, §2
Slices were exposed to L-AP4, L-quisqualic acid and the test compound in the following sequence, which is a modification of the previous method: (1) 200 μM L-AP4, (2) test compound, (3) 200 μM L-AP4, (4) 16 μM L-quisqualic acid, (5) 200 μM L-AP4, (6) test compound, (7) 200 μM L-AP4. […] Full concentration-response curves were determined for the test compound both before and after treatment of slices with L-quisqualic acid. […]

[5] = system: CA1 neurons (rat hippocampal slices); details: data from Ref. 14, cited from earlier work; for IC50: CA1 region; for sensitization: fractional increase in potency
[6] = system: metabotropic receptor; details: cited from earlier work
[7] = system: N-acetyl α-linked acidic dipeptidase; details: hydrolyzes the brain dipeptide Ac-Asp-Glu-OH; cited from earlier work
[8] = system: CA1 neurons in rat hippocampal slices; details: cited from earlier work
[9] = system: AMPA receptor; details: cited from earlier work
[10] = system: kainate receptor; details: cited from earlier work
[11] = system: Ca^2+ /Cl^- -dependent glutamic acid uptake system; details: brain synaptic plasma membrane preparations; cited from earlier work
[12] = Rattus norvegicus, Neuron, 4 min, CA1 region, after 4-minute exposure of slices to 16 μM L-quisqualic acid, read-out: IC50 Values ± SEM after quisqualic acid
[13] = Rattus norvegicus, Neuron, CA1 region of the hippocampus, before exposure to L-quisqualic acid, mean of four or more experiments, read-out: IC50 Values ± SEM before quisqualic acid
[14] = after 4-minute exposure to 16 μM L-quisqualic acid, read-out: IC50 Values after quisqualic acid
[15] = before L-quisqualic acid, read-out: IC50 Values before quisqualic acid

N[C@@H](CC1CC(=O)NC1=O)C(=O)O (mixture of isomers) [Compound 5B, 2,5-Dioxo-α(S)-amino-3(RS)-pyrrolidinepropanoic Acid]
activity at the AMPA/quisqualate receptor [1]: active at the AMPA/quisqualate receptor | IC50 ([2]; CA1 region of the hippocampus, before exposure to L-quisqualic acid, mean of four or more experiments, read-out: IC50 Values ± SEM before quisqualic acid): 9200 ± 1100 µM | IC50 ([2]; CA1 region, after 4-minute exposure of slices to 16 μM L-quisqualic acid, read-out: IC50 Values ± SEM after quisqualic acid): 6800 ± 930 µM | sensitization [2]: 1.3 | change in IC50 / sensitization after L-quisqualic acid [2]: No significant change in IC50 values

N[C@@H](COS(=O)(=O)O)C(=O)O [L-serine O-sulfate]
reversal of the QUIS effect after it has been induced [3]: capable of reversing the QUIS effect | blocking (preblocking) of the QUIS effect [3]: the QUIS effect can be blocked

N[C@@H](CN1CC(=O)NC1=O)C(=O)O [Compound 6]
IC50 [2, 12]: 0.8 ± 0.26 µM | IC50 [2, 13]: 1.4 ± 0.6 µM | IC50 ([2]; Rattus norvegicus, Neuron, CA1 region of the rat hippocampus, read-out: IC50, stimulatory effect on CA1 region of the rat hippocampus): 1.4 ± 0.6 µM | sensitization [2]: 1.7 | stimulatory activity prior to treatment with L-quisqualic acid [2]: high stimulatory activity | induction of the QUIS effect [4]: did not exhibit the QUIS effect

N[C@@H](CC1=CC(=O)NC1=O)C(=O)O [Compound 2, (S)-2,5-Dihydro-2,5-dioxo-α-amino-1H-pyrrole-3-propanoic Acid]
Ki ([1]; [3H]AMPA radioligand): 0.37 µM | % Inhibition of [3H]AMPA binding [1]: 93.5% | IC50 [2, 12]: 9.5 ± 2.5 µM | IC50 [2, 13]: 21 ± 4.4 µM | sensitization [2]: 2.2 | stimulatory activity prior to treatment with L-quisqualic acid [2]: high stimulatory activity

N[C@H](Cn1oc(=O)[nH]c1=O)C(=O)O [D-quisqualic acid, reference compound]
IC50 ([2]; Rattus norvegicus, Neuron, 4 min, read-out: IC50 Values ± SEM after quisqualic acid): 10 ± 1.7 µM | IC50 ([2]; Rattus norvegicus, Neuron, read-out: IC50 Values ± SEM before quisqualic acid): 78 ± 8.5 µM | sensitization [2]: 7.5 | change in IC50 / sensitization after L-quisqualic acid [2]: slices become sensitized

N[C@H](CCP(=O)(O)O)C(=O)O [D-AP4, D-2-amino-4-phosphonobutanoic acid]
IC50 [5, 14]: 152 µM | IC50 [5, 15]: 2600 µM | sensitization [5]: 17

N[C@@H](CCCC(=O)O)C(=O)O [L-α-aminoadipic acid]
reversal of the QUIS effect after it has been induced [3]: capable of reversing the QUIS effect | blocking (preblocking) of the QUIS effect [3]: the QUIS effect can be blocked

N[C@@H](CC1CC(=O)NC1=O)C(=O)O (mixture of isomers) [Compound 5A, 2,5-Dioxo-α(S)-amino-3(RS)-pyrrolidinepropanoic Acid]
activity at the AMPA/quisqualate receptor [1]: active at the AMPA/quisqualate receptor | % Inhibition of [3H]AMPA binding [1]: 55.5% | IC50 [2, 12]: > 10000 µM | IC50 [2, 13]: > 10000 µM | change in IC50 / sensitization after L-quisqualic acid [2]: No significant change in IC50 values

N[C@@H](Cn1oc(=O)[nH]c1=O)C(=O)O [L-quisqualic acid, L-Quisqualic acid]
affinity for the metabotropic receptor [6]: high affinity | inhibition of N-acetyl α-linked acidic dipeptidase [7]: inhibits | IC50 [5, 14]: 2.9 µM | IC50 [5, 15]: 3.9 µM | sensitization [5]: 1.3 | sensitization of CA1 neurons to depolarization by D- or L-AP4 and related phosphonates [8]: 30-100 fold | affinity for the AMPA receptor [9]: high affinity | affinity for the kainate receptor [10]: high affinity | inhibition of Ca2+/Cl- -dependent glutamic acid uptake system [11]: inhibits | induction of the QUIS effect [4]: only L-quisqualic acid sensitized slices to depolarization by AP4

N[C@@H](CCP(=O)(O)O)C(=O)O [L-AP4, L-2-amino-4-phosphonobutanoic acid]
IC50 [5, 14]: 55 µM | IC50 [5, 15]: 1800 µM | sensitization [5]: 33

CN1C(=O)C=C(C[C@H](N)C(=O)O)C1=O [Compound 3, (S)-2,5-Dihydro-2,5-dioxo-α-amino-1-methylpyrrole-3-propanoic Acid]
% Inhibition of [3H]AMPA binding [1]: 1.1% | decrease of IC50 values after exposure of the tissue to L-quisqualic acid [2]: more than 7 fold | IC50 [2, 12]: 6.8 ± 2.3 µM | IC50 [2, 13]: 95 ± 19 µM | sensitization [2]: 14.0 | change in IC50 / sensitization after L-quisqualic acid [2]: the slices are sensitized to depolarization by these compounds following exposure to L-quisqualic acid; also recorded: first non-phosphorus compounds to which hippocampal slices are known to become sensitized | induction of the QUIS effect [4]: do not induce the QUIS effect

N[C@@H](CC1=CC(=O)N(CC(=O)O)C1=O)C(=O)O [Compound 4, (S)-2,5-Dihydro-2,5-dioxo-α-amino-1-(carboxymethyl)pyrrole-3-propanoic Acid]
decrease of IC50 values after exposure of the tissue to L-quisqualic acid [2]: more than 7 fold | IC50 [2, 12]: 375 ± 75 µM | IC50 [2, 13]: 2900 ± 320 µM | sensitization [2]: 7.7 | change in IC50 / sensitization after L-quisqualic acid [2]: the slices are sensitized to depolarization by these compounds following exposure to L-quisqualic acid; also recorded: first non-phosphorus compounds to which hippocampal slices are known to become sensitized | induction of the QUIS effect [4]: do not induce the QUIS effect

N[C@@H](CCS(=O)O)C(=O)O [L-homocysteinesulfinic acid]
reversal of the QUIS effect after it has been induced [3]: capable of reversing the QUIS effect | blocking (preblocking) of the QUIS effect [3]: the QUIS effect can be blocked

Reference: US5359087A, “Bioactive quisqualic acid analogs” (Regents of the University of Minnesota, priority 1993, dated 1994)
